# Assay results reported in US20250361274A1, “PEPTIDE AND PEPTIDE-CONTAINING AGENT” (PEPTIDREAM INC., priority 2022, published 2025).
# “Also recorded” adds a separate entry of the source. Numbered stars: 1 amine (or outer) side, 2 acyl side, 3 side chain; on linkers, the order of the positions; unused ones are H or OH. Bridge positions count the residues as written; N and C are the ends. Square brackets hold non-standard residues; d marks the D form. Peptide text beside a SMILES is read from it. ξ: configuration not given here. X2 = O=C(C[C@@H](Cc1ccc(-c2ccccc2)cc1)C(=O)[*:2])[C@@H]1CCCN1[*:1]; Phe(4-COOH) = N[C@@H](Cc1ccc(C(=O)O)cc1)C(=O)O; Bip = N[C@@H](Cc1ccc(-c2ccccc2)cc1)C(=O)O; Nle(6-COOH) = N[C@@H](CCCCC(=O)O)C(=O)O; X1 = N=C(CN)NCCC[C@H](N[*:1])C(=O)[*:2]; Ala(4-THP) = N[C@@H](CC1CCOCC1)C(=O)O; ξE = NC(CCC(=O)O)C(=O)O; βAla = NCCC(=O)O
# Target: T1, BMP7 (Homo sapiens, UniProt P18075)
# T1 sequence (P18075 293-431): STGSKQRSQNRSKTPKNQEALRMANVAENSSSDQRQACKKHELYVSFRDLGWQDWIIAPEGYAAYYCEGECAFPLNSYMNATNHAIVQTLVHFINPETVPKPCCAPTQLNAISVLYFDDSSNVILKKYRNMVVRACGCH
# Assay: BMP7 signal transduction inhibitory activity: SMAD1 phosphorylation by BMP7 stimulus, A549 cells
# Type: cell-based
# Outline: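 SMAD1 phosphorylation readout in A549 cells stimulated with BMP7 (10 nM). Peptides were tested at three levels (e.g. 1/10/100, 10/100/1,000, 100/300/1,000, 10/30/90 nM) or at eight points, 1/3 steps, from 100 or 1,000 nM. Recombinant Noggin served as positive control at matching concentrations.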
compound,measurement,value
CC(C)[C@@H]1NC(=O)[C@H](CCCNC(=N)N)NC(=O)[C@H](CCCCC(=O)O)NC(=O)CSC[C@@H](C(=O)NCCC(=O)NC(CCC(=O)O)C(=O)O)NC(=O)[C@H](CO)NC(=O)[C@H](Cc2ccc(C(=O)O)cc2)NC(=O)[C@H](Cc2ccc(C(=O)O)cc2)NC(=O)[C@H](Cc2ccc(O)cc2)NC(=O)[C@H](Cc2ccc(-c3ccccc3)cc2)CC(=O)[C@@H]2CCCN2C(=O)[C@H](Cc2ccc(O)cc2)NC(=O)[C@@H]2CCCN2C(=O)[C@H](Cc2ccc(-c3ccccc3)cc2)NC(=O)[C@H](CCCNC(=N)CN)NC(=O)[C@H](CC(=O)O)NC(=O)[C@H](CC2CCOCC2)NC(=O)[C@H](Cc2ccc(C(=O)O)cc2)NC1=O (stereo partly shown) [SEQ ID No. 177] ({CH2CO}-[Nle(6-COOH)]RV[Phe(4-COOH)][Ala(4-THP)]D[X1][Bip]PY[X2]Y[Phe(4-COOH)][Phe(4-COOH)]SC[βAla][ξE]-OH; thioether N-16),BMP7 inhibitory activity (in words),same level of the BMP7 inhibitory activity as Noggin; also recorded: signal transduction inhibitory activities of BMP4 and BMP7
